{"source": "paper PMC6131351", "about": "“Pharmacological difference between degrader and inhibitor against oncogenic BCR-ABL kinase” (Scientific Reports, 2018)", "molecules": {"B1": {"name": "FITC-labeled Smac peptide (FITC-Smac, AVPIAQK(5-FAM)-NH2) (peptide)", "peptide": "AVPIAQK(5FAM)-NH2", "modifications": "N-terminus assumed", "SMILES": "CC[C@H](C)[C@H](NC(=O)[C@@H]1CCCN1C(=O)[C@@H](NC(=O)[C@H](C)N)C(C)C)C(=O)N[C@@H](C)C(=O)N[C@@H](CCC(N)=O)C(=O)N[C@@H](CCCCNC(=O)c1ccc2c(c1)C(=O)OC21c2ccc(O)cc2Oc2cc(O)ccc21)C(N)=O", "notes": "N-terminal stretch of mature Smac (DIABLO); Fluorescent probe of the TR-FRET assay; source: synthetic peptide (synthesized in Scrum, Tokyo)"}}, "key": {"[1]": {"test_system": "caspase 3 activation and PARP cleavage", "test": "Caspase activation and PARP cleavage after drug removal in K562 cells", "format": "cell-based, Human", "procedure": "(§1) Cells were collected and lysed in a lysis buffer (0.5% Triton X-100, 0.01 M Tris-HCl (pH 7.5), 0.15 M NaCl, Complete Mini protease inhibitor cocktail (Roche Applied Science, Indianapolis, IL, USA) and PhosStop phosphatase inhibitor cocktail (Roche Applied Science)). Protein concentrations were measured by the BCA method (Thermo Fisher Scientific) and an equal amount of protein lysate was separated by SDS-PAGE, transferred to polyvinylidene difluoride membranes (Merck Millipore) and analyzed by western blot using an appropriate antibody. The immunoreactive proteins were visualized using Clarity Western ECL substrate (Bio-Rad, Hercules, CA, USA) and their light emission was quantified with a LAS-3000 lumino-image analyzer (Fuji, Tokyo, Japan). The following antibodies were used: anti-cAbl rabbit polyclonal antibody (pAb) (#2862), anti-XIAP rabbit pAb (#2042), anti-phospho-cAbl rabbit pAb (#3009), anti-STAT5 rabbit pAb (#9363), anti-phospho-STAT5 rabbit pAb (#9359), anti-CrkL mouse monoclonal antibody (mAb) (#3182) and anti-phospho-CrkL rabbit pAb (#3181), anti-PARP rabbit pAb (#9532), and anti-cleaved Caspase 3 rabbit pAb (#9664) (Cell Signaling Technology, Danvers, MA, USA); anti-β-tubulin (ab6046) rabbit pAb (Abcam, Cambridge, UK) and anti-GAPDH rabbit pAb (sc-25778 HRP) (Santa Cruz, Dallas, TX, USA); anti-cIAP1 goat pAb (AF8181) (R&D systems).\n(§2) Cells were seeded at a concentration of 2 × 10^6 cells per 10-cm tissue culture dish and treated with the indicated compounds for the indicated times. Then, the cells were washed three times to remove the compounds, and incubated in drug-free medium for the indicated times."}, "K562 cells [2]": {"test_system": "K562 cells", "test": "WST cell growth inhibition, K562", "format": "cell-based, Human", "conditions": "48 h", "procedure": "(§3) Human CML (K562 and KU812 cells), acute T-lymphoblast leukemia (MOLT-4 cell), and T cell leukemia (Jurkat cell) were cultured in Roswell Park Memorial Institute-1640 medium (Sigma-Aldrich, St. Louis, MO, USA) containing 10% fetal bovine serum (Thermo Fisher Scientific, Waltham, MA, USA) and 50 μg/ml kanamycin (Sigma-Aldrich). KU812 cells were obtained from Japanese Collection of Research Bioresources (JCRB, Osaka, Japan) Cell Bank (JCRB0104)[58].\n(§4) Cell viability was determined using water-soluble tetrazolium WST-8 (4-[3-(2-methoxy-4-nitrophenyl)-2-(4-nitrophenyl)-2H-5-tetrazolio]-1,3-benzene disulfonate) for the spectrophotometric assay and conducted according to the manufacturer’s instructions (Dojindo, Tokyo, Japan). Cells were seeded at a concentration of 5 × 10^3 cells per well in a 96-well culture plate, and treated with the indicated compounds for 48 h. The WST-8 reagent was added, and the cells were incubated for 0.5 h at 37 °C in a humidified atmosphere of 5% CO2. The absorbance at 450 nm of the medium was measured using the EnVision Multilabel Plate Reader."}, "BCR-ABL protein": {"target": "T1, BCR-ABL protein (Homo sapiens, UniProt P00519+P11274)", "T1 construct": "examined for their activity to degrade BCR-ABL in K562 cells for 6 h; BCR (fusion partner, P11274, N-terminal part); endogenous in cells; host or cells: K562", "T1 sequence (P11274+P00519 fused)": "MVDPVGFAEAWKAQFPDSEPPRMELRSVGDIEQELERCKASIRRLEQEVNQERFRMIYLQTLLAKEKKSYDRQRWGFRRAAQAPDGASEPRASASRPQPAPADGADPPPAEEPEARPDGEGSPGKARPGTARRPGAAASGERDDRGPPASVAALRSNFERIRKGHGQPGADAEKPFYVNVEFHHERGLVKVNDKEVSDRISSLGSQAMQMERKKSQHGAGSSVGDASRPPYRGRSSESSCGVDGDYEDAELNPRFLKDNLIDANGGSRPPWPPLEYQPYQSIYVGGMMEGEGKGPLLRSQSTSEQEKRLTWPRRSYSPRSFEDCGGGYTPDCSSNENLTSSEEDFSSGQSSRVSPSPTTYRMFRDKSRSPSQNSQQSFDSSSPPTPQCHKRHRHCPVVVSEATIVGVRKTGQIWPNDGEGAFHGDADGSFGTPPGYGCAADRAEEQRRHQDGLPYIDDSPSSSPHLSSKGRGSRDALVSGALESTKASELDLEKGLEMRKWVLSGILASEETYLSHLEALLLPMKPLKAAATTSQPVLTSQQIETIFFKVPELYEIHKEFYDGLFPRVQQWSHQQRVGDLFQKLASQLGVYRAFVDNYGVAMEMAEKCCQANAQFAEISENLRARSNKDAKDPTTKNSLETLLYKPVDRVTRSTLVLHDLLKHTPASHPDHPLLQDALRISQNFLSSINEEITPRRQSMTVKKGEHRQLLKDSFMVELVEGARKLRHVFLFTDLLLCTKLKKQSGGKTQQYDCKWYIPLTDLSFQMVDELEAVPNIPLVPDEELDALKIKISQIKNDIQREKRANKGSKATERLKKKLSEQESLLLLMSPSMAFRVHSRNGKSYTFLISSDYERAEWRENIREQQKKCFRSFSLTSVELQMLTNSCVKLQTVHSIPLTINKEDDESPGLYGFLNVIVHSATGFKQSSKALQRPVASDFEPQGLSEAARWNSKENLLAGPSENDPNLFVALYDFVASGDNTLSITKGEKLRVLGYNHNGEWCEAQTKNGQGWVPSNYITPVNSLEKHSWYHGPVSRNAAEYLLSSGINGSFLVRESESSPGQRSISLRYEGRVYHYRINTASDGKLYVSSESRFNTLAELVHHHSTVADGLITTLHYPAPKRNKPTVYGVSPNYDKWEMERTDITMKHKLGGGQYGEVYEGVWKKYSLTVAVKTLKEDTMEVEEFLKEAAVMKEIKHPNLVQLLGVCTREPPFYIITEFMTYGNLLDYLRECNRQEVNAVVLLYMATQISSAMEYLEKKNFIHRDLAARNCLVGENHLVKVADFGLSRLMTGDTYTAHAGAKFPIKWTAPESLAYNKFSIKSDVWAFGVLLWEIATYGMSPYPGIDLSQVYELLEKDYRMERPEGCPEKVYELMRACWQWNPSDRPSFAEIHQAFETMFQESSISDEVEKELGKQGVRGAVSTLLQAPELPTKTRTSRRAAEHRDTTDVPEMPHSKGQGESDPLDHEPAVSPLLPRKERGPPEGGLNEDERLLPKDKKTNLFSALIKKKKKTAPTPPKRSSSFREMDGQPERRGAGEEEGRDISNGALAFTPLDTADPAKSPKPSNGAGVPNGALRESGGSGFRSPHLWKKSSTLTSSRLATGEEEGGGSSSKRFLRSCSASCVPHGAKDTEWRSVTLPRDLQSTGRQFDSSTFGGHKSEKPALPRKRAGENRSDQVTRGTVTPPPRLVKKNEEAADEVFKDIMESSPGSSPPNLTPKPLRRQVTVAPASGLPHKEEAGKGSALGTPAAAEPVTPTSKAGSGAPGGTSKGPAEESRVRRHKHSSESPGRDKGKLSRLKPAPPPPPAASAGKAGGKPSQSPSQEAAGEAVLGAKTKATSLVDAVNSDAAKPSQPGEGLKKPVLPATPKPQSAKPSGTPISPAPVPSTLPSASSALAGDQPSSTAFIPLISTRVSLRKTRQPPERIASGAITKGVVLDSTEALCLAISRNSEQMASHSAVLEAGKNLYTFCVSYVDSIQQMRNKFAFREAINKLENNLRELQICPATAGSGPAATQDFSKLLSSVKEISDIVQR", "test": "Protein knockdown by western blot in K562 cells", "format": "cell-based", "conditions": "6 h, 1-300 nM", "procedure": "Cells were collected and lysed in a lysis buffer (0.5% Triton X-100, 0.01 M Tris-HCl (pH 7.5), 0.15 M NaCl, Complete Mini protease inhibitor cocktail (Roche Applied Science, Indianapolis, IL, USA) and PhosStop phosphatase inhibitor cocktail (Roche Applied Science)). Protein concentrations were measured by the BCA method (Thermo Fisher Scientific) and an equal amount of protein lysate was separated by SDS-PAGE, transferred to polyvinylidene difluoride membranes (Merck Millipore) and analyzed by western blot using an appropriate antibody. The immunoreactive proteins were visualized using Clarity Western ECL substrate (Bio-Rad, Hercules, CA, USA) and their light emission was quantified with a LAS-3000 lumino-image analyzer (Fuji, Tokyo, Japan)."}, "KU812 cells": {"test_system": "KU812 cells", "test": "WST cell growth inhibition, KU812", "format": "cell-based", "conditions": "Homo sapiens, 48 h, WST assay, means ± SD (n = 3)", "procedure": "as §3, §4"}, "[3]": {"test_system": "phosphorylation of BCR-ABL, STAT5 and CrkL", "test": "Downstream kinase signaling (phosphorylation) by western blot in K562 cells", "format": "cell-based, Human", "procedure": "as §1, §2"}, "K562 cells [4]": {"test_system": "K562 cells", "test": "Washout experiment, cell counting of K562 cells", "format": "cell-based, Human", "conditions": "25 or 50 times IC50 for 12 h, washed, drug-free medium for 6 d", "procedure": "as §2"}, "[5]": {"target": "T2, recombinant His-tagged human XIAP (BIR3, Asn252-Thr356) (human, UniProt P98170 252-356)", "T2 construct": "XIAP, human, BIR3 domain, residues Asn252-Thr356; also called His-IAP proteins; source: bought: R&D Systems (895-XB-050)", "T2 sequence (P98170 252-356)": "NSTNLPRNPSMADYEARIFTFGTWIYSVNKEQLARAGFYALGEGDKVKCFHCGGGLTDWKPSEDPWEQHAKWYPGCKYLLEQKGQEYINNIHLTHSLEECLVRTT", "test": "AlphaScreen or HTRF; TR-FRET competition assay: 0.6 nM His-IAP BIR3 held by biotinylated anti-His antibody and terbium-streptavidin, FITC-Smac probe (27 nM for XIAP, 12 nM for cIAP1, 19 nM for cIAP2), small-molecule test compounds as competitors; 50 mM HEPES pH 7.2-7.5, 10 mM MgCl2, 1 mM EGTA, 0.1 mM DTT, 0.01% Brij 35; room temperature", "conditions": "both partners purified"}, "[6]": {"target": "T3, recombinant His-tagged human cIAP1 (BIR3, Leu250-Gly350) (human, UniProt Q13490 250-350)", "T3 construct": "cIAP1, human, BIR3 domain, residues Leu250-Gly350; also called His-IAP proteins; source: E. coli, purified (Ni-NTA column, gel filtration chromatography)", "T3 sequence (Q13490 250-350)": "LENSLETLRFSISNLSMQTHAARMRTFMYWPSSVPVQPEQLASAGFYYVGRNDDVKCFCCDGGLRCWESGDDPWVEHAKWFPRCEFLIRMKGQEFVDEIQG", "test": "AlphaScreen or HTRF; TR-FRET competition assay: 0.6 nM His-IAP BIR3 held by biotinylated anti-His antibody and terbium-streptavidin, FITC-Smac probe (27 nM for XIAP, 12 nM for cIAP1, 19 nM for cIAP2), small-molecule test compounds as competitors; 50 mM HEPES pH 7.2-7.5, 10 mM MgCl2, 1 mM EGTA, 0.1 mM DTT, 0.01% Brij 35; room temperature", "conditions": "both partners purified"}, "[7]": {"target": "T4, recombinant His-tagged human cIAP2 (BIR3, Gln238-Ser349) (human, UniProt Q13489 238-349)", "T4 construct": "cIAP2, human, BIR3 domain, residues Gln238-Ser349; also called His-IAP proteins; source: E. coli, purified (Ni-NTA column, gel filtration chromatography)", "T4 sequence (Q13489 238-349)": "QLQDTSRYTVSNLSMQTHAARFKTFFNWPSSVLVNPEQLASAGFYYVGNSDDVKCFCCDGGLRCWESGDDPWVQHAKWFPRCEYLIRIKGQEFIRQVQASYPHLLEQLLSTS", "test": "AlphaScreen or HTRF; TR-FRET competition assay: 0.6 nM His-IAP BIR3 held by biotinylated anti-His antibody and terbium-streptavidin, FITC-Smac probe (27 nM for XIAP, 12 nM for cIAP1, 19 nM for cIAP2), small-molecule test compounds as competitors; 50 mM HEPES pH 7.2-7.5, 10 mM MgCl2, 1 mM EGTA, 0.1 mM DTT, 0.01% Brij 35; room temperature", "conditions": "both partners purified"}}, "note": "Residues, ends and D or L forms follow the SMILES beside them. No end group written: not given here. *: point of attachment. 5FAM = O=C1OC2(c3ccc(O)cc3Oc3cc(O)ccc32)c2ccc(C(=O)*)cc21; Cbz = O=C(OCc1ccccc1)*; CH2F = FC*", "data": [{"molecule": "COC(=O)C[C@H](NC(=O)[C@H](C)NC(=O)[C@@H](NC(=O)OCc1ccccc1)C(C)C)C(=O)CF", "note": "[zVAD-FMK, reference compound] (Cbz-Val-Ala-Asp(OMe)-CH2F)", "values": [{"measurement": "effect on caspase activation and PARP cleavage by DAS-IAP", "setting": "[1]; K562, after DAS-IAP pulse and drug removal, 24 h", "result": "abrogated"}]}, {"molecule": "CCN1CCN(Cc2ccc(NC(=O)c3cccc(-c4ccc5nc(NC(=O)COCCOCCOCC(=O)N[C@H](C(=O)N6C[C@H](O)C[C@H]6C(=O)NCc6ccc(-c7scnc7C)cc6)C(C)(C)C)sc5n4)c3)cc2C(F)(F)F)CC1", "note": "[HG-VHL]", "values": [{"measurement": "suppression of K562 cell growth (comparison)", "setting": "K562 cells [2]; WST assay", "result": "more potent suppression of the growth of K562 cells than HG-IAP and HG-CRBN"}, {"measurement": "knockdown activity against the BCR-ABL protein", "setting": "BCR-ABL protein", "result": "effective protein knockdown activity"}]}, {"molecule": "Cc1nc(Nc2ncc(C(=O)Nc3c(C)cccc3Cl)s2)cc(N2CCN(C(=O)COCCOCCOCC(=O)N[C@H](C(=O)N3C[C@H](O)C[C@H]3C(=O)NCc3ccc(-c4scnc4C)cc3)C(C)(C)C)CC2)n1", "note": "[DAS-VHL]", "values": [{"measurement": "knockdown activity against the BCR-ABL protein", "setting": "BCR-ABL protein", "result": "negligible activity"}]}, {"molecule": "Cc1nc(Nc2ncc(C(=O)Nc3c(C)cccc3Cl)s2)cc(N2CCN(CCO)CC2)n1", "note": "[Dasatinib, dasatinib, reference compound]", "values": [{"measurement": "times more active than DAS-IAP to inhibit CML cell growth", "setting": "K562 cells [2]", "result": 100, "unit": "times"}, {"measurement": "IC50", "setting": "K562 cells [2]; Homo sapiens, WST assay, means ± SD (n = 3)", "result": "79.3 ± 3.7", "unit": "pM"}, {"measurement": "IC50", "setting": "KU812 cells", "result": "44.8 ± 0.5", "unit": "pM"}, {"measurement": "phosphorylation of BCR-ABL, STAT5 and CrkL", "setting": "[3]; K562, 50 times IC50 for 12 h (time 0)", "result": "inhibited"}, {"measurement": "phosphorylation of BCR-ABL, STAT5 and CrkL", "setting": "[3]; K562 cells, 6 h", "result": "suppressed"}, {"measurement": "growth of K562 cells after drug removal", "setting": "K562 cells [4]", "result": "slightly delayed the growth"}, {"measurement": "caspase 3 activation and PARP cleavage", "setting": "[1]; K562, 50 times IC50 for 12 h, drug removal for 24 h", "result": "not"}]}, {"molecule": "CCN1CCN(Cc2ccc(NC(=O)c3cccc(-c4ccc5nc(NC(=O)COCCOCCOCCOc6cccc(C(=O)c7csc([C@@H]8CCCN8C(=O)[C@@H](NC(=O)[C@H](C)NC)C8CCCCC8)n7)c6)sc5n4)c3)cc2C(F)(F)F)CC1", "note": "[HG-IAP]", "values": [{"measurement": "knockdown activity against the BCR-ABL protein", "setting": "BCR-ABL protein", "result": "weak"}]}, {"molecule": "B1", "values": [{"measurement": "binding result", "setting": "[5]", "result": "binds"}, {"measurement": "binding result", "setting": "[6]", "result": "binds"}, {"measurement": "binding result", "setting": "[7]", "result": "binds"}]}]}
